Reference: paper PMC5218480 (PLoS ONE, 2017)

System: MV-4-11 cells
Experiment: Gene expression microarray analysis (Affymetrix PrimeView) and GSEA
Type: cell-based, human
Parameters: RFU PODN (11730768_x_at) / Fold change /veh PODN (11730768_x_at) / RFU LINC00158 (11744669_a_at) / Fold change /veh LINC00158 (11744669_a_at) / RFU DUSP10 (11751237_a_at) / Fold change /veh DUSP10 (11751237_a_at) / RFU ID3 (11757404_x_at) / Fold change /veh ID3 (11757404_x_at) / RFU PLEKHG5 (11737974_s_at) / Fold change /veh PLEKHG5 (11737974_s_at) / RFU LRRC4B (11730491_at) / Fold change /veh LRRC4B (11730491_at) / RFU GIMAP4 (11747438_a_at) / Fold change /veh GIMAP4 (11747438_a_at) / RFU KRT8 (11758183_x_at) / Fold change /veh KRT8 (11758183_x_at) / RFU CNN1 (11734310_a_at) / Fold change /veh CNN1 (11734310_a_at) / RFU VPS37D (11726825_at) / Fold change /veh VPS37D (11726825_at) / RFU C10orf10 (11716522_x_at) / Fold change /veh C10orf10 (11716522_x_at) / RFU KIR2DL2 /// KIR2DL4 /// KIR2DL5A /// KIR2DL5B /// KIR2DS1 /// KIR2DS2 /// KIR2DS3 /// KIR2DS4 /// KIR3DL3 /// KIR3DL3 /// KIR3DS1 (11738374_at) / Fold change /veh KIR2DL2 /// KIR2DL4 /// KIR2DL5A /// KIR2DL5B /// KIR2DS1 /// KIR2DS2 /// KIR2DS3 /// KIR2DS4 /// KIR3DL3 /// KIR3DL3 /// KIR3DS1 (11738374_at) / RFU C1QL1 (11718748_at) / Fold change /veh C1QL1 (11718748_at) / RFU TMPRSS4 (11747572_a_at) / Fold change /veh TMPRSS4 (11747572_a_at) / RFU HAMP (11756126_x_at) / Fold change /veh HAMP (11756126_x_at) / RFU RNFT2 (11725882_a_at) / Fold change /veh RNFT2 (11725882_a_at) / RFU NR4A2 (11747474_a_at) / Fold change /veh NR4A2 (11747474_a_at) / RFU ABCC12 (11746883_a_at) / Fold change /veh ABCC12 (11746883_a_at) / RFU TMEM136 (11760407_x_at) / Fold change /veh TMEM136 (11760407_x_at) / RFU CLDN22 /// WWC2 (11732394_at) / Fold change /veh CLDN22 /// WWC2 (11732394_at) / RFU HLA-DPB1 (11760878_x_at) / Fold change /veh HLA-DPB1 (11760878_x_at) / RFU SPINT1 (11716480_a_at) / Fold change /veh SPINT1 (11716480_a_at) / RFU GAP43 (11754022_s_at) / Fold change /veh GAP43 (11754022_s_at) / RFU A4GNT (11735810_at) / Fold change /veh A4GNT (11735810_at) / RFU PRB3 (11715151_x_at) / Fold change /veh PRB3 (11715151_x_at) / RFU TUBB4B (11761932_at) / Fold change /veh TUBB4B (11761932_at) / RFU CAPN14 (11732068_a_at) / Fold change /veh CAPN14 (11732068_a_at) / RFU TMCC2 (11721928_a_at) / Fold change /veh TMCC2 (11721928_a_at) / RFU IRGQ (11745062_a_at) / Fold change /veh IRGQ (11745062_a_at) / RFU FAM174B (11720279_a_at) / Fold change /veh FAM174B (11720279_a_at) / RFU TMPRSS4 (11748680_a_at) / Fold change /veh TMPRSS4 (11748680_a_at) / RFU FAM212B (11763350_a_at) / Fold change /veh FAM212B (11763350_a_at) / RFU PLEKHG5 (11743358_a_at) / Fold change /veh PLEKHG5 (11743358_a_at) / RFU ZSCAN30 (11745921_a_at) / Fold change /veh ZSCAN30 (11745921_a_at) / RFU CMKLR1 (11741424_a_at) / Fold change /veh CMKLR1 (11741424_a_at) / RFU LOC101060620 /// MAPK8IP1 (11723275_at) / Fold change /veh LOC101060620 /// MAPK8IP1 (11723275_at) / RFU SPTSSB (11747773_x_at) / Fold change /veh SPTSSB (11747773_x_at) / RFU PRSS12 (11739890_at) / Fold change /veh PRSS12 (11739890_at) / RFU BIN1 (11741810_x_at) / Fold change /veh BIN1 (11741810_x_at) / RFU WNT11 (11732464_a_at) / Fold change /veh WNT11 (11732464_a_at) / RFU C10orf10 (11716521_a_at) / Fold change /veh C10orf10 (11716521_a_at) / RFU C5orf56 (11738089_at) / Fold change /veh C5orf56 (11738089_at) / RFU CYB561 (11721691_x_at) / Fold change /veh CYB561 (11721691_x_at) / RFU ANKRD19P (11752326_a_at) / Fold change /veh ANKRD19P (11752326_a_at) / RFU OR2T12 /// OR2T33 /// OR2T8 (11738714_s_at) / Fold change /veh OR2T12 /// OR2T33 /// OR2T8 (11738714_s_at) / RFU VCAN (11748164_a_at) / Fold change /veh VCAN (11748164_a_at) / RFU JSRP1 (11732532_at) / Fold change /veh JSRP1 (11732532_at) / RFU KRTAP10-11 (11738290_x_at) / Fold change /veh KRTAP10-11 (11738290_x_at) / RFU MYO3A (11730013_a_at) / Fold change /veh MYO3A (11730013_a_at) / RFU EBF3 (11725865_a_at) / Fold change /veh EBF3 (11725865_a_at) / RFU CAMK2N1 (11719241_x_at) / Fold change /veh CAMK2N1 (11719241_x_at) / RFU C5orf56 (11738088_a_at) / Fold change /veh C5orf56 (11738088_a_at) / RFU OLFML3 (11715873_a_at) / Fold change /veh OLFML3 (11715873_a_at) / RFU LOC100653217 /// NTM (11731650_a_at) / Fold change /veh LOC100653217 /// NTM (11731650_a_at) / RFU MAPK11 (11762145_a_at) / Fold change /veh MAPK11 (11762145_a_at) / RFU FIZ1 (11724087_x_at) / Fold change /veh FIZ1 (11724087_x_at) / RFU OASL (11726364_x_at) / Fold change /veh OASL (11726364_x_at) / RFU SOX15 (11748057_x_at) / Fold change /veh SOX15 (11748057_x_at) / RFU CD79A (11719716_a_at) / Fold change /veh CD79A (11719716_a_at) / RFU HIST1H1D (11736915_at) / Fold change /veh HIST1H1D (11736915_at) / RFU CASKIN2 (11723855_a_at) / Fold change /veh CASKIN2 (11723855_a_at) / RFU LOC730098 (11760151_x_at) / Fold change /veh LOC730098 (11760151_x_at) / RFU OR4N2 (11742367_at) / Fold change /veh OR4N2 (11742367_at) / RFU PRRT2 (11749266_a_at) / Fold change /veh PRRT2 (11749266_a_at) / RFU SNX32 (11753110_a_at) / Fold change /veh SNX32 (11753110_a_at) / RFU CDHR5 (11726645_a_at) / Fold change /veh CDHR5 (11726645_a_at) / RFU RCAN1 (11760418_a_at) / Fold change /veh RCAN1 (11760418_a_at) / RFU FAM167A (11723789_a_at) / Fold change /veh FAM167A (11723789_a_at) / RFU FAM26E (11764081_at) / Fold change /veh FAM26E (11764081_at) / RFU ISYNA1 (11749810_s_at) / Fold change /veh ISYNA1 (11749810_s_at) / RFU ACY1 (11761880_at) / Fold change /veh ACY1 (11761880_at) / RFU 11764098_at / Fold change /veh 11764098_at / RFU SAMD14 (11745864_x_at) / Fold change /veh SAMD14 (11745864_x_at) / RFU NPB (11741838_a_at) / Fold change /veh NPB (11741838_a_at) / RFU TMPRSS6 (11731388_a_at) / Fold change /veh TMPRSS6 (11731388_a_at) / RFU KRTAP10-2 (11738614_at) / Fold change /veh KRTAP10-2 (11738614_at) / RFU ARHGAP8 /// PRR5-ARHGAP8 (11727945_x_at) / Fold change /veh ARHGAP8 /// PRR5-ARHGAP8 (11727945_x_at) / RFU KRTAP5-7 /// NADSYN1 (11734609_at) / Fold change /veh KRTAP5-7 /// NADSYN1 (11734609_at) / RFU RASL12 (11751679_a_at) / Fold change /veh RASL12 (11751679_a_at) / RFU CDKN2B (11736163_a_at) / Fold change /veh CDKN2B (11736163_a_at) / RFU PRF1 (11729649_at) / Fold change /veh PRF1 (11729649_at) / RFU, ZNF638 /// ZNF638-IT1 / Fold change vs veh, ZNF638 /// ZNF638-IT1 / RFU, PANK3 / Fold change vs veh, PANK3 / RFU, SH3YL1 / Fold change vs veh, SH3YL1 / RFU, ZEB2 / Fold change vs veh, ZEB2 / RFU, NRIP1 / Fold change vs veh, NRIP1 / RFU, PTTG1IP / Fold change vs veh, PTTG1IP / RFU, CAPN2 / Fold change vs veh, CAPN2 / RFU, MED14 / Fold change vs veh, MED14 / RFU, SNORA58 / Fold change vs veh, SNORA58 / RFU, C1orf63 / Fold change vs veh, C1orf63 / RFU, LRRFIP1 / Fold change vs veh, LRRFIP1 / RFU, NDUFAF7 / Fold change vs veh, NDUFAF7 / RFU, SLC12A2 / Fold change vs veh, SLC12A2 / RFU, IBTK / Fold change vs veh, IBTK / RFU, ESF1 / Fold change vs veh, ESF1 / Fold change vs veh, TMEM50B / RFU, TAOK1 / Fold change vs veh, TAOK1 / RFU, ACBD3 / Fold change vs veh, ACBD3 / RFU, TMA16 / Fold change vs veh, TMA16 / RFU, RWDD3 / Fold change vs veh, RWDD3 / RFU, BCAT1 / Fold change vs veh, BCAT1 / RFU, EDEM3 / Fold change vs veh, EDEM3 / RFU, TMEM33 / Fold change vs veh, TMEM33 / RFU, WDR75 / Fold change vs veh, WDR75 / RFU, AHCTF1 / Fold change vs veh, AHCTF1 / RFU, TFRC / Fold change vs veh, TFRC / RFU, ZDHHC17 / Fold change vs veh, ZDHHC17 / RFU, NOM1 / Fold change vs veh, NOM1 / RFU, ARL8B / Fold change vs veh, ARL8B / RFU, ZBTB11 / Fold change vs veh, ZBTB11 / RFU, TAMM41 / Fold change vs veh, TAMM41 / RFU, KIAA1704 /// LOC100996395 / Fold change vs veh, KIAA1704 /// LOC100996395 / RFU, ING1 / Fold change vs veh, ING1 / RFU, TRMT61B / Fold change vs veh, TRMT61B / RFU, FUBP3 / Fold change vs veh, FUBP3 / RFU, TP53 / Fold change vs veh, TP53 / RFU, TNKS2 / Fold change vs veh, TNKS2 / RFU, ZFP14 / Fold change vs veh, ZFP14 / RFU, ACTR2 / Fold change vs veh, ACTR2 / RFU, PPP3R1 / Fold change vs veh, PPP3R1 / RFU, PIK3R1 / Fold change vs veh, PIK3R1 / RFU, HNRNPA1 / Fold change vs veh, HNRNPA1 / RFU, RNF170 / Fold change vs veh, RNF170 / RFU, ZNF28 / Fold change vs veh, ZNF28 / RFU, RNGTT / Fold change vs veh, RNGTT / RFU, OGT / Fold change vs veh, OGT / RFU, BRD1 / Fold change vs veh, BRD1 / RFU, MARS / Fold change vs veh, MARS / RFU, ZNF655 / Fold change vs veh, ZNF655 / RFU, FAHD1 / Fold change vs veh, FAHD1 / RFU, BDP1 / Fold change vs veh, BDP1 / RFU, LRRCC1 / Fold change vs veh, LRRCC1 / RFU, ARID1A / Fold change vs veh, ARID1A / RFU, ZNF146 / Fold change vs veh, ZNF146 / RFU, ZNF330 / Fold change vs veh, ZNF330 / RFU, GPN3 / Fold change vs veh, GPN3 / RFU, C9orf123 / Fold change vs veh, C9orf123 / RFU, N4BP2L2 / Fold change vs veh, N4BP2L2 / RFU, ARFIP1 / Fold change vs veh, ARFIP1 / RFU, FAM179B / Fold change vs veh, FAM179B / RFU, BCL10 / Fold change vs veh, BCL10 / RFU, UHRF1BP1L / Fold change vs veh, UHRF1BP1L / RFU, BET1 / Fold change vs veh, BET1 / RFU, CNOT2 / Fold change vs veh, CNOT2 / RFU, ZNF268 / Fold change vs veh, ZNF268 / Fold change vs veh, ZNF507 / RFU, DGCR2 / Fold change vs veh, DGCR2 / RFU, WDSUB1 / Fold change vs veh, WDSUB1 / Fold change vs veh, HSP90B1 /// MIR3652 / RFU, ADSS / Fold change vs veh, ADSS / RFU, GK / Fold change vs veh, GK / RFU, ZNF148 / Fold change vs veh, ZNF148 / RFU, TAF9 / Fold change vs veh, TAF9 / RFU, SLC1A5 / Fold change vs veh, SLC1A5 / RFU, SLMO2 / Fold change vs veh, SLMO2 / RFU, ABCC4 / Fold change vs veh, ABCC4 / RFU, LOC101060439 /// RAP1B / Fold change vs veh, LOC101060439 /// RAP1B / RFU, RFX7 / Fold change vs veh, RFX7 / RFU, GTPBP10 / Fold change vs veh, GTPBP10 / RFU, CNEP1R1 / Fold change vs veh, CNEP1R1 / RFU, BIVM-ERCC5 /// ERCC5 / Fold change vs veh, BIVM-ERCC5 /// ERCC5 / RFU, ILF3 / Fold change vs veh, ILF3 / RFU 11762660_at / Fold change /veh 11762660_at / RFU VCAN (11757783_s_at) / Fold change /veh VCAN (11757783_s_at) / RFU DDX43 (11728927_at) / Fold change /veh DDX43 (11728927_at) / RFU KRT8 (11758188_x_at) / Fold change /veh KRT8 (11758188_x_at) / RFU NKD1 (11759106_at) / Fold change /veh NKD1 (11759106_at) / RFU SRD5A1 (11742802_a_at) / Fold change /veh SRD5A1 (11742802_a_at) / RFU TPSAB1 /// TPSB2 (11721975_s_at) / Fold change /veh TPSAB1 /// TPSB2 (11721975_s_at) / RFU GSTM3 (11746129_a_at) / Fold change /veh GSTM3 (11746129_a_at) / RFU IL23R (11737362_x_at) / Fold change /veh IL23R (11737362_x_at) / RFU TMEM51 (11727254_a_at) / Fold change /veh TMEM51 (11727254_a_at) / RFU PIWIL2 (11732686_x_at) / Fold change /veh PIWIL2 (11732686_x_at) / RFU ORM1 (11744905_x_at) / Fold change /veh ORM1 (11744905_x_at) / RFU CCDC152 (11743942_at) / Fold change /veh CCDC152 (11743942_at) / RFU ECM1 (11717891_a_at) / Fold change /veh ECM1 (11717891_a_at) / RFU IL23R (11748794_a_at) / Fold change /veh IL23R (11748794_a_at) / RFU TNFAIP8L3 (11732012_x_at) / Fold change /veh TNFAIP8L3 (11732012_x_at) / RFU MBOAT4 (11741988_at) / Fold change /veh MBOAT4 (11741988_at) / RFU 11764193_at / Fold change /veh 11764193_at / RFU TMEM53 (11763286_at) / Fold change /veh TMEM53 (11763286_at) / RFU MAGEB2 (11727129_at) / Fold change /veh MAGEB2 (11727129_at) / RFU TMEM200A (11744735_a_at) / Fold change /veh TMEM200A (11744735_a_at) / RFU CCDC152 (11751479_a_at) / Fold change /veh CCDC152 (11751479_a_at) / RFU FAM211A (11726209_a_at) / Fold change /veh FAM211A (11726209_a_at) / RFU RGS16 (11746705_a_at) / Fold change /veh RGS16 (11746705_a_at) / RFU VCAN (11755009_s_at) / Fold change /veh VCAN (11755009_s_at) / RFU RHOB (11743442_s_at) / Fold change /veh RHOB (11743442_s_at) / RFU RGS16 (11720943_a_at) / Fold change /veh RGS16 (11720943_a_at) / RFU RGS16 (11720944_at) / Fold change /veh RGS16 (11720944_at) / RFU, VPS4B / Fold change vs veh, VPS4B / RFU, CREB1 / Fold change vs veh, CREB1 / RFU, DNAJC13 / Fold change vs veh, DNAJC13 / RFU, GNAQ / Fold change vs veh, GNAQ / RFU, CDK5R1 / Fold change vs veh, CDK5R1 / RFU, ZRANB3 / Fold change vs veh, ZRANB3 / RFU, CUL4A / Fold change vs veh, CUL4A / RFU, CCNY / Fold change vs veh, CCNY / RFU, UFL1 / Fold change vs veh, UFL1 / RFU, COG3 / Fold change vs veh, COG3 / RFU, DIAPH2 / Fold change vs veh, DIAPH2 / RFU, SKA2 / Fold change vs veh, SKA2 / RFU, AFF3 / Fold change vs veh, AFF3 / RFU, LMF1 / Fold change vs veh, LMF1 / RFU, IPO11 / Fold change vs veh, IPO11 / RFU, DFFB / Fold change vs veh, DFFB / RFU, FOXP1 / Fold change vs veh, FOXP1 / RFU, CARD8 / Fold change vs veh, CARD8 / RFU, STRN3 / Fold change vs veh, STRN3 / RFU, ADK / Fold change vs veh, ADK / RFU, RASSF2 / Fold change vs veh, RASSF2 / RFU, WIPF1 / Fold change vs veh, WIPF1 / RFU, LARP1B / Fold change vs veh, LARP1B / RFU, RASA1 / Fold change vs veh, RASA1 / RFU, RB1 / Fold change vs veh, RB1 / RFU, PPFIA1 / Fold change vs veh, PPFIA1 / RFU, MAT2A / Fold change vs veh, MAT2A / RFU, CCT5 / Fold change vs veh, CCT5 / RFU, WDR92 / Fold change vs veh, WDR92 / RFU, CUX1 / Fold change vs veh, CUX1 / RFU, TTC7A / Fold change vs veh, TTC7A / RFU, TMEM135 / Fold change vs veh, TMEM135 / RFU, DEPTOR / Fold change vs veh, DEPTOR / RFU, CPM / Fold change vs veh, CPM / RFU, DNAJB6 / Fold change vs veh, DNAJB6 / RFU, CACNA2D3 / Fold change vs veh, CACNA2D3 / RFU, DTX4 / Fold change vs veh, DTX4 / RFU, TFCP2 / Fold change vs veh, TFCP2 / RFU, GMCL1 /// GMCL1P1 / Fold change vs veh, GMCL1 /// GMCL1P1 / RFU, AEBP2 / Fold change vs veh, AEBP2 / RFU, SNHG1 /// SNORD22 /// SNORD25 /// SNORD26 /// SNORD27 /// SNORD28 /// SNORD29 /// SNORD31 / Fold change vs veh, SNHG1 /// SNORD22 /// SNORD25 /// SNORD26 /// SNORD27 /// SNORD28 /// SNORD29 /// SNORD31 / Fold change (Aza/veh), C12orf56 (ProbeSet 11735607_a_at) / Fold change (ACY-1035/veh), C12orf56 (ProbeSet 11735607_a_at) / Fold change (Aza/veh), FGFR1OP (ProbeSet 11751329_s_at) / Fold change (ACY-1035/veh), FGFR1OP (ProbeSet 11751329_s_at) / Fold change (Aza/veh), VPS36 (ProbeSet 11739960_a_at) / Fold change (ACY-1035/veh), VPS36 (ProbeSet 11739960_a_at) / RFU SYPL1 (11715823_x_at) / Fold change /veh SYPL1 (11715823_x_at) / RFU IGFBP7 (11715501_s_at) / Fold change /veh IGFBP7 (11715501_s_at) / RFU REEP3 (11722064_at) / Fold change /veh REEP3 (11722064_at) / RFU IGLL1 (11728026_x_at) / Fold change /veh IGLL1 (11728026_x_at): dose or concentration left out as unconfirmed
Conditions: ProbeSet 11763166_a_at; LIST B

Nc1ncn([C@@H]2O[C@H](CO)[C@@H](O)[C@H]2O)c(=O)n1 [azacitidine]
RFU, MARS: 35.99 RFU
